What is called Kd is the free concentration of one partner at which half of the binding sites on the other are occupied at equilibrium, for simple one-to-one binding.

Each structure is given as a SMILES string. Where a name gives a salt, the structure may show the parent alone.

The target of the assay is T1, CRISP2 L98G (Homo sapiens, UniProt P16562, L98G).
T1 construct: made in house; host or cells: E. coli
Description: MST binding to CRISP2 single mutant L98G. On the set-up: species or system mammalian. Particulars: absence of PSP94, read-out: Kd, sterol binding by CRISP2 L98G. An excerpt: This interaction is thus located outside the hydrophobic loop that harbors the sterol-binding CBM. Based on these structural considerations, it is thus not apparent why and how the interaction between PSP94 and CRISP2 would block sterol binding at the CBM. To investigate this question in more detail, we first performed computational docking studies to identify residues in CRISP2 that are critical for the interaction with PSP94. […] Two of these three interacting residues, N97 and L98, are conserved in all three CAP family members tested here, CRISP2, CRISP3, and Pry1 (Fig. 4A). […]
MST experiments were performed to assess protein–protein, protein–lipid, and protein–calcium interactions using a Monolith NT.115 (Nanotemper Technologies). […] The dissociation constant Kd was obtained by plotting the normalized fluorescence (Fnorm) against the logarithm of ligand concentration. […]
Quadruple mutant cells lacking the acyl-CoA synthetases FAA1 and FAA4 and the yeast CAP family members PRY1 and PRY3 (faa1∆ faa4∆ pry1∆ pry3∆) expressing different combinations of plasmid-borne copies of PRY1, CRISP2, and or PSP94, or their respective empty vectors (pRS423 or pRS426) were cultivated overnight. The export of fatty acids into the culture medium was then quantified. […]

T1 sequence (P16562 22-243 L98G): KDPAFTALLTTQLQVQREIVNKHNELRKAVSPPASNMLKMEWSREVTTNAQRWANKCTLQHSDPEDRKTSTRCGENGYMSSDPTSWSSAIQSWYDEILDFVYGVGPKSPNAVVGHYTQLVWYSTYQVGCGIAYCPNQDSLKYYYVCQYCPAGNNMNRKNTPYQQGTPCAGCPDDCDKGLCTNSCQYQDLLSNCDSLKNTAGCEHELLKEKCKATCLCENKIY

As for `CC(C)CCC[C@@H](C)[C@H]1CC[C@H]2[C@@H]3CC=C4C[C@@H](OS(=O)(=O)O)CC[C@]4(C)[C@H]3CC[C@]12C` [cholesterol sulfate], the dissociation constant Kd turned out to be 95 ± 2.1 µM.

The values are drawn from paper PMC8857485, “Prostate secretory protein 94 inhibits sterol binding and export by the mammalian CAP protein CRISP2 in a calcium-sensitive manner” (The Journal of Biological Chemistry, 2022).
